Results taken from US9173891B2, “Treatment of ovarian cancer using an anticancer agent conjugated to an angiopep-2 analog” (Angiochem, Inc., priority 2009, dated 2015).

Key:
[1] = tested on: metastatic ovarian cancer; assay: Prior standard chemotherapy of the ovarian cancer patient before the ANG1005 trial; type: in vivo, human; details: prior therapy 2007-2008
Description: The patient was originally diagnosed in November 2006 with ovarian cancer. […] From February 2008 to March 2008, the patient received a combination of Gemzar® (gemcitabine) and […]® (topotecan). The patient was again given a combination of Taxotere® (docetaxel) and carboplatin from March 2008 until July 2008. In November 2008, the patient was administered Doxil® (doxorubicin).

LRP receptor = target: T1, LRP receptor (Rattus norvegicus, UniProt G3V928); assay: In situ rat brain perfusion, uptake inhibition by LRP ligands or Angiopep peptides; type: in vivo; details: for brain uptake of an Angiopep conjugate: FIG. 6B
T1 construct: from tissue; host or cells: brain of male Sprague Dawley rats (in situ perfusion)
T1 sequence (G3V928 20-4545): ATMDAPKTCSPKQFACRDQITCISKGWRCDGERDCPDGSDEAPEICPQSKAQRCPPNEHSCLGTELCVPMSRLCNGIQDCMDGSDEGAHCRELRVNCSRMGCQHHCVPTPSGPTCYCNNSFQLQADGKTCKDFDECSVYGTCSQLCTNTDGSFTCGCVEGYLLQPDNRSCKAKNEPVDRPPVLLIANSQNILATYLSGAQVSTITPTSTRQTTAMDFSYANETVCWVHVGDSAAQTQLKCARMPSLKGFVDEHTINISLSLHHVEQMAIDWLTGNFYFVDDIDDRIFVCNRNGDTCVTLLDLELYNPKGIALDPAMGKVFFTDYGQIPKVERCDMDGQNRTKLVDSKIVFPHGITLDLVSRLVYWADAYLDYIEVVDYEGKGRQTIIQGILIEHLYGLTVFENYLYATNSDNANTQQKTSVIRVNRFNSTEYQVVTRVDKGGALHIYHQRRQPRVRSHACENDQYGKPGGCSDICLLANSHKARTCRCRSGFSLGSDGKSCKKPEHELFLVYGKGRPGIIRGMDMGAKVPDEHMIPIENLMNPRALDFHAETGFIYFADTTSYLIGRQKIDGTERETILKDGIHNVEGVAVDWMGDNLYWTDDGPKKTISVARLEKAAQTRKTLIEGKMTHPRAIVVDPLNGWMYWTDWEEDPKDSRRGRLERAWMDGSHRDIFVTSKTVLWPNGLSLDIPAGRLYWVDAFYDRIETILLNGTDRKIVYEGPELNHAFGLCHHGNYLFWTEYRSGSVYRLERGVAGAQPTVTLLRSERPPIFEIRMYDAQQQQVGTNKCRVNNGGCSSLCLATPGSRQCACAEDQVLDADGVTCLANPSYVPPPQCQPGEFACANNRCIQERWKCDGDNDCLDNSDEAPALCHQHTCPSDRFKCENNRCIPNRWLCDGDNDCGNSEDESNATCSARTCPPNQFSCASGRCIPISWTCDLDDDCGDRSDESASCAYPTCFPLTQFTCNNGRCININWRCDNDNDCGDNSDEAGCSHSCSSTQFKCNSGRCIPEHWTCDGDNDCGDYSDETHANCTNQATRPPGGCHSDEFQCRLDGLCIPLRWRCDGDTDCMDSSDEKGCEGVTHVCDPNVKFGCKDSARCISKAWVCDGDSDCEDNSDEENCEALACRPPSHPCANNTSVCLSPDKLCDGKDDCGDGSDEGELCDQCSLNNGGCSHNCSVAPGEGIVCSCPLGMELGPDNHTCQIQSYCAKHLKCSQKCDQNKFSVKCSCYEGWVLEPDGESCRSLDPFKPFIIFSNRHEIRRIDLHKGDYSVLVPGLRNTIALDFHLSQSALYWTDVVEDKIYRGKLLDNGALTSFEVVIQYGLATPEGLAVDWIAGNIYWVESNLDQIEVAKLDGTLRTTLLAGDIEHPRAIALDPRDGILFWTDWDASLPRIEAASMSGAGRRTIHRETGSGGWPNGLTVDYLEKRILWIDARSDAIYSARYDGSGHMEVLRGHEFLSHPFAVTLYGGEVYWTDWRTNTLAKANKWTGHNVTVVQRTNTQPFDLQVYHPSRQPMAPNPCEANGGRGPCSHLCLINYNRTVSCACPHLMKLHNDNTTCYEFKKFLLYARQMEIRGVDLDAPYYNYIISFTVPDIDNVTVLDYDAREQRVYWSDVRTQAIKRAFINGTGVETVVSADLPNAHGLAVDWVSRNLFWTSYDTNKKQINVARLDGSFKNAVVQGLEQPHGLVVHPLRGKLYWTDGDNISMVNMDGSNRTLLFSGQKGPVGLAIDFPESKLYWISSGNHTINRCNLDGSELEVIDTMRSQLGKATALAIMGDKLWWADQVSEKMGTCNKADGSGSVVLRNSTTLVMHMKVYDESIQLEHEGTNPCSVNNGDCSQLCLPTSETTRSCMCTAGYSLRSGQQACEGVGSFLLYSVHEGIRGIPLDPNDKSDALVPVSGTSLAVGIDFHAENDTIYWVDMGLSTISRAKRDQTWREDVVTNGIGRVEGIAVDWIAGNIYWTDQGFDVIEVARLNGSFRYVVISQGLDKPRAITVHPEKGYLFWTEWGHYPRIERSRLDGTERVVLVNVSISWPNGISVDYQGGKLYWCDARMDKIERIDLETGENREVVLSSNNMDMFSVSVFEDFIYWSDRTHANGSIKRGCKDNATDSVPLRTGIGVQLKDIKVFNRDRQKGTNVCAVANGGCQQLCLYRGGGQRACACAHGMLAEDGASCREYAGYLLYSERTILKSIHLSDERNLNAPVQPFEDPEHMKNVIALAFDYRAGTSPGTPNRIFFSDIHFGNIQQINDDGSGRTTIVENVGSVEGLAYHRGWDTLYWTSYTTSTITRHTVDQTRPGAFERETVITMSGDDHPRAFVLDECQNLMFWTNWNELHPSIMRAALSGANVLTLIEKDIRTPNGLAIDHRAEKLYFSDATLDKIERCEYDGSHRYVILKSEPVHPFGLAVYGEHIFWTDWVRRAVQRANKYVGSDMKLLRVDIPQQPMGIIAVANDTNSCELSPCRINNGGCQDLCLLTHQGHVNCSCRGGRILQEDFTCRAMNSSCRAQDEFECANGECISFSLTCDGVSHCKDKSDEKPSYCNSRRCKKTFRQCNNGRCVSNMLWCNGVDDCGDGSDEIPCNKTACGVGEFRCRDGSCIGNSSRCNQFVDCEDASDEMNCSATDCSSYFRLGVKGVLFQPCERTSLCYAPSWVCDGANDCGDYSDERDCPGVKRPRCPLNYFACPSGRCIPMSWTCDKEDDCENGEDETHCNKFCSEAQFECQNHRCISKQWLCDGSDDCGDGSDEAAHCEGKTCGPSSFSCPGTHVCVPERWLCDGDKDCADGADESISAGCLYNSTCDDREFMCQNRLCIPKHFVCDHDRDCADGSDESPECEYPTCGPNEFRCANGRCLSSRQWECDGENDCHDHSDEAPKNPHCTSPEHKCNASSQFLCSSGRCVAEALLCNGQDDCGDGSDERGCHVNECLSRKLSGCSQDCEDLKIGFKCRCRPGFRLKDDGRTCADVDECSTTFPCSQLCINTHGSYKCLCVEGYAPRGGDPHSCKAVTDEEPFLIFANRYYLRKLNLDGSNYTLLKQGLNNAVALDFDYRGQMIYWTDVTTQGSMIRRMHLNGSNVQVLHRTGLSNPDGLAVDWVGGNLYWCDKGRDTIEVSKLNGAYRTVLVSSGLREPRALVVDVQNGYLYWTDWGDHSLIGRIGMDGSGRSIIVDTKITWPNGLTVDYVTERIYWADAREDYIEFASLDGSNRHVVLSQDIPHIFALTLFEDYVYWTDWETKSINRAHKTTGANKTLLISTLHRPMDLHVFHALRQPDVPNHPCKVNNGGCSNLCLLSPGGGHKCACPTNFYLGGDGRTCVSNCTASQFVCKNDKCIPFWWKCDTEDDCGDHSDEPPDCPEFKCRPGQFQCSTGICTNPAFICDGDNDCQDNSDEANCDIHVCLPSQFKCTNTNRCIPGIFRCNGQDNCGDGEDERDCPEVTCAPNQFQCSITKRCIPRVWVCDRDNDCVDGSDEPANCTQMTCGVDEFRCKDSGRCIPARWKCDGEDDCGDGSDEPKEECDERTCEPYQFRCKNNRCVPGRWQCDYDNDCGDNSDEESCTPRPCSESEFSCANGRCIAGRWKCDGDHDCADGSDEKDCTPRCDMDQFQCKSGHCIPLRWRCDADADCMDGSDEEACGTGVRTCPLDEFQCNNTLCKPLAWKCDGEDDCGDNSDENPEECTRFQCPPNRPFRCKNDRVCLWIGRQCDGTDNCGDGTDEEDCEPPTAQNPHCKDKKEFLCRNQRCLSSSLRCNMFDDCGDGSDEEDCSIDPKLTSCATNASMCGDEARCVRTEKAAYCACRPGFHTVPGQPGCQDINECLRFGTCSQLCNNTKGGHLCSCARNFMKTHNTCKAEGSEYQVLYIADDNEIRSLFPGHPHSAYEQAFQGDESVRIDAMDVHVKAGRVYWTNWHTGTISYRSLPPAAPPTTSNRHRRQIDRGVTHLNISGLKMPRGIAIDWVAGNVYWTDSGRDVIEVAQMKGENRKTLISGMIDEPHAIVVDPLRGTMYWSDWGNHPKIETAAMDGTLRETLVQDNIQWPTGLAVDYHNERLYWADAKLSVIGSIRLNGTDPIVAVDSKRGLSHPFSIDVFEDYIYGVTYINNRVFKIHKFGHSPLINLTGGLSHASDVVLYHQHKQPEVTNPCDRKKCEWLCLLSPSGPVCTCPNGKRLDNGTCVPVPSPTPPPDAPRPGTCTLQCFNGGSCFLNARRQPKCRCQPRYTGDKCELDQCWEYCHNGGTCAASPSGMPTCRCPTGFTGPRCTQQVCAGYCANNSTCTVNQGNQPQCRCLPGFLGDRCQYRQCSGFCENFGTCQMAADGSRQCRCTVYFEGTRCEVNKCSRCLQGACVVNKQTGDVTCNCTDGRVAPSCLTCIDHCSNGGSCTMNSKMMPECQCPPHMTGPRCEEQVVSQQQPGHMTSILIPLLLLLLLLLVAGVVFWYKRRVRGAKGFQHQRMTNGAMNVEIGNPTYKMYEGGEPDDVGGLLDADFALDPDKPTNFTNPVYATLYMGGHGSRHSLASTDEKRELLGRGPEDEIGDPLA
Description: The methods of the invention may be especially useful in treating cancers having cells that express low density lipoprotein-related protein (LRP) receptor. The LRP receptor is expressed on the surface of cells, and is capable of binding to various substrates including aprotinin, β-amyloid, tissue plasminogen activator (tPA), melano-transferrin, and receptor associated peptide (RAP). The peptides described herein were designed based on the consensus kunitz-domain sequences that act as LRP receptor ligands (see, e.g., PCT Publication No. WO 2004/060403). Uptake of the conjugates including Angiopep-1 or Angiopep-2 is inhibited by LRP ligands, thus indicating involvement of LRP in this process. […] Angiopep-2 (10 or 100 μM) is similarly able to reduce uptake of the conjugates into cells (FIGS. 6A and 6B).
The results described in FIGS. 4A and 4B were obtained using an in situ rat brain perfusion. Male Sprague Dawley rats were anesthetized with […] i.p., of sodium pentobarbital (Nembutal, Abbott Laboratories, North Chicago, Ill., USA). The neck region was shaved and the common carotid artery was exposed. The external carotid artery was ligated, but the pterygopalatine artery was not occluded. A PE-60 catheter filled with heparinized 0.9% saline (100 IU/mL) was inserted into the common carotid artery upon ligation. A heating pad linked to YSI feedback controller device (Yellow Springs Instruments, Yellow Springs, Ohio, USA) was used to maintain the rat body temperature at 37° C. The PE-60 catheter was attached to a glass syringe filled with the tracer; with or without inhibitors, in a bicarbonate-buffered physiological saline (Smith Q R., Pharm Biotechnol 8:285-307, 1996) mounted on a Harvard infusion pump (Harvard Biosciences, South Natick, Mass., USA) maintained at 37° C. Dual-labeled experiments were performed for studying the brain uptake. [^14C]Sucrose was used as a vascular volume marker. Perfusion was started upon severing the heart to stop blood flow to the brain. […] The samples were weighed and counted using the gamma counter (Cobra 600) to determine the ^125I labeled drug. […]

Q: With `CC[C@@]1(O)C(=O)OCc2c1cc1n(c2=O)Cc2cc3c(CN(C)C)c(O)ccc3nc2-1` [topotecan] as the compound, how does the “course of patient's cancer after receiving the agent” value (shortened to “course of patient's cancer”) [1] read?
A: continued to progress

Q: Which “course of patient's cancer” value [1] does the source give for `N.N.O=C([O-])C1(C(=O)[O-])CCC1.[Pt+2]` [carboplatin] here?
A: continued to progress

Q: How did the “course of patient's cancer” value [1] turn out when `Nc1ccn([C@@H]2O[C@H](CO)[C@@H](O)C2(F)F)c(=O)n1` [gemcitabine] was run?
A: continued to progress

Q: How did the “brain uptake of an Angiopep conjugate” value (LRP receptor; RAP 200 nM co-perfused) turn out when “RAP: LRP ligand, receptor associated protein (RAP)” was run?
A: reducing brain uptake

Q: How did the “brain uptake of an Angiopep conjugate” value (LRP receptor; aprotinin 10 μM co-perfused) turn out when aprotinin was run?
A: reducing brain uptake

Q: How did the “course of patient's cancer” value [1] turn out when `CC(=O)O[C@@]12CO[C@@H]1C[C@H](O)[C@@]1(C)C(=O)[C@H](O)C3=C(C)[C@@H](OC(=O)[C@H](O)[C@@H](NC(=O)OC(C)(C)C)c4ccccc4)C[C@@](O)([C@@H](OC(=O)c4ccccc4)[C@H]21)C3(C)C` [docetaxel] was run?
A: continued to progress

Q: Which “uptake of the conjugates into cells” value (LRP receptor; Angiopep-2 10 or 100 μM, FIG. 6A) does the source give for “Angiopep-2: peptide vector, sequence TFFYGGSRGKRNNFKTEEY” here?
A: reduce uptake

Q: For `COc1cccc2c1C(=O)c1c(O)c3c(c(O)c1C2=O)C[C@@](O)(C(=O)CO)C[C@@H]3O[C@H]1C[C@H](N)[C@H](O)[C@H](C)O1` [doxorubicin], which “course of patient's cancer” value [1] is on record?
A: continued to progress
